From paper PMC5218480 (PLoS ONE, 2017) come the findings set out here.

The test has as its system MV-4-11 cells. The test is described as follows: Gene expression microarray analysis (Affymetrix PrimeView) and GSEA. Type of test: cell-based, human. The note with it: ProbeSet 11754607_s_at; LIST B.

With `Nc1ncn([C@@H]2O[C@H](CO)[C@@H](O)[C@H]2O)c(=O)n1` [azacitidine], the “RFU, HSP90B1 /// MIR3652” value is on record as 2647.82 RFU.
